From article PMC3351444, “Molecular Evolution of a Peptide GPCR Ligand Driven by Artificial Neural Networks” (PLoS ONE, 2012)
pEC50: −log10 of the molar value. Where two headings read alike, the source gives them in different places. Square brackets hold non-standard residues; d marks the D form. Peptide text beside a SMILES is read from it.

Columns and labels:
[1] = In vitro peptide stability in human serum (RP-HPLC); conditions: for half-life at 50 µg/mL: human; for t1/2: metabolic stability in human serum
Method: The initial time is recorded, and at known time intervals 50 µL of the reaction solution is removed and added to 100 µL of 6% aqueous trichloroacetic acid (TCA) for precipitation of serum proteins. […] The reaction supernatant is then analyzed using RP-HPLC (Agilent 1200 LC System) on a ZORBAX Eclipse XDB-C18, 4.6×150 mm, 5 µm column (Agilent). […] Fluorescence is detected at an excitation wavelength of 280 nm and emission wavelength of 340 nm. Kinetic analysis was carried out by least-squares analysis of the logarithm of the integration peak area versus time.

[2] = target: T1, human CMKLR1 (Homo sapiens, UniProt Q99788); assay: Ca2+ mobilization (CellLux imaging) agonist assay in HEK293A cells expressing CMKLR1 and Gα15; assay type: cell-based
T1 construct: host or cells: HEK293A (Invitrogen), stably expressing human Gα15
T1 sequence (Q99788 1-373): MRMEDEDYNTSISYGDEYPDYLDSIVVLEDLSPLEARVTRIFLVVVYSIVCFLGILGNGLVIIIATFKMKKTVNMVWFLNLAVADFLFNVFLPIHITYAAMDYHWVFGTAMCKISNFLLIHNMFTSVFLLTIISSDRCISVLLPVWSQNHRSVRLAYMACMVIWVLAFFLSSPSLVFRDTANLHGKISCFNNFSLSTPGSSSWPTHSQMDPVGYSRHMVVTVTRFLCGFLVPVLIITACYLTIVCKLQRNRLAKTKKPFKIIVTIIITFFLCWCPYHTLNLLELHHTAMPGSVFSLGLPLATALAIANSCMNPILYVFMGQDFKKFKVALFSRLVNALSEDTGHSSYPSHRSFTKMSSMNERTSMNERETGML
Method in brief: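 HEK293A cells co-expressing CMKLR1 and Gα15 were loaded with FLUO4-AM, and peptides were added robotically in C1 buffer (HEPES pH 7.4, 2 mM CaCl2) with 0.1% BSA. Fluorescence changes were read in duplicate wells, buffer-subtracted and normalized to background. EC50 came from amplitude–concentration plots.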

[3] = Ca2+ mobilization, CMKLR1, decimal comma
[4] = Ca2+ mobilization, CMKLR1, decimal comma, NR where no EC50 is given, read-out: EC50

SMILES | half-life at 50 µg/mL ([1]; human serum, 25% (v/v) in RPMI) | max response [2, 3] | pEC50 [2, 4] | t1/2 [1] | half-life at 50 µg/mL ([1]; serum) | pEC50 [2]
C[C@H](NC(=O)[C@H](Cc1ccccc1)NC(=O)[C@H](C)NC(=O)[C@H](Cc1ccc(O)cc1)NC(=O)[C@H](C)NC(=O)[C@H](Cc1ccccc1)NC(=O)[C@@H](CO)NC(=O)[C@H](Cc1ccccc1)NC(=O)[C@@H](N)CCC(N)=O)C(=O)O [compound 102] (H-QF[dS]FAYAFA-OH; N-terminus assumed) | 1.38 h | 1,78 DF/F0 | 6.85 |  |  | 
CC(C)[C@H](NC(=O)[C@@H](Cc1ccc(O)cc1)NC(=O)[C@H](CO)NC(=O)[C@@H]1CCCN1)C(=O)N1CCC[C@H]1C(=O)NCC(=O)N[C@@H](CCC(N)=O)C(=O)N[C@@H](Cc1ccc(O)cc1)C(=O)N[C@@H](C)C(=O)O [compound 107] (H-PS[dY]VPGQYA-OH; N-terminus assumed) | 6.03 h | 1,97 DF/F0 | 5.98 |  |  | 
CC(C)C[C@H](NC(=O)[C@@H]1CCCN1C(=O)[C@@H](NC(=O)[C@H](Cc1ccc(O)cc1)NC(=O)[C@@H]1CCCN1)C(C)C)C(=O)N[C@H](CC(=O)O)C(=O)N[C@@H](Cc1ccc(O)cc1)C(=O)N[C@@H](C)C(=O)N[C@@H](Cc1ccccc1)C(=O)O [compound 111] (H-PYVPL[dD]YAF-OH; N-terminus assumed) | 1.53 h | 1,5 DF/F0 | 5.71 |  |  | 
C[C@H](NC(=O)[C@H](Cc1ccc(O)cc1)NC(=O)[C@H](CCC(N)=O)NC(=O)CNC(=O)[C@H](Cc1ccccc1)NC(=O)[C@H](Cc1ccc(O)cc1)NC(=O)[C@H](N)CS)C(=O)N[C@@H](Cc1ccccc1)C(=O)N[C@H](CO)C(=O)O [compound 113] (H-[dC]YFGQYAF[dS]-OH; N-terminus assumed) | 0.483 h | 1,56 DF/F0 | 5.66 |  |  | 
C[C@H](NC(=O)[C@H](Cc1ccccc1)NC(=O)[C@H](C)NC(=O)[C@H](Cc1ccccc1)NC(=O)[C@@H](N)CCC(N)=O)C(=O)N[C@@H](Cc1ccccc1)C(=O)N[C@@H](C)C(=O)N[C@@H](Cc1ccccc1)C(=O)N[C@H](CO)C(=O)O [compound 115] (H-QFAFAFAF[dS]-OH; N-terminus assumed) | 0.4 h | 1,2 DF/F0 | 5.60 |  |  | 
C[C@H](NC(=O)[C@H](Cc1ccccc1)NC(=O)[C@H](C)NC(=O)[C@@H](N)Cc1ccccc1)C(=O)N[C@@H](Cc1ccccc1)C(=O)N[C@H](CO)C(=O)N[C@@H](Cc1ccccc1)C(=O)N[C@@H](C)C(=O)N[C@@H](Cc1ccc(O)cc1)C(=O)O [compound 117] (H-FAFAF[dS]FAY-OH; N-terminus assumed) | 0.433 h | 0,87 DF/F0 | 5.35 |  |  | 
CC(C)C[C@H](NC(=O)[C@@H](N)Cc1ccc(O)cc1)C(=O)N1CCC[C@H]1C(=O)N[C@H](CO)C(=O)N[C@@H](CCC(N)=O)C(=O)N[C@@H](Cc1ccc(O)cc1)C(=O)N[C@@H](C)C(=O)N[C@@H](Cc1ccccc1)C(=O)N[C@H](Cc1ccccc1)C(=O)O [compound 119] (H-YLP[dS]QYAF[dF]-OH; N-terminus assumed) |  | 1,62 DF/F0 |  |  | 1.05 h | 9.51
CC(C)C[C@H](NC(=O)[C@H](N)Cc1ccc(O)cc1)C(=O)N1CCC[C@H]1C(=O)N[C@H](CO)C(=O)N[C@@H](CCC(N)=O)C(=O)N[C@@H](Cc1ccc(O)cc1)C(=O)N[C@@H](C)C(=O)N[C@@H](Cc1ccccc1)C(=O)N[C@H](Cc1ccccc1)C(=O)O [compound 120] (H-[dY]LP[dS]QYAF[dF]-OH; N-terminus assumed) |  | 1,97 DF/F0 |  |  | 28.2 h | 
CC(C)C[C@H](NC(=O)[C@@H](N)Cc1ccc(O)cc1)C(=O)N1CCC[C@H]1C(=O)N[C@H](CCC(N)=O)C(=O)N[C@@H](CCC(N)=O)C(=O)N[C@@H](Cc1ccc(O)cc1)C(=O)N[C@@H](C)C(=O)N[C@@H](Cc1ccccc1)C(=O)N[C@H](Cc1ccccc1)C(=O)O [compound 123] (H-YLP[dQ]QYAF[dF]-OH; N-terminus assumed) |  | 1,74 DF/F0 |  | 1.45 h |  | 
CC(C)C[C@H](NC(=O)[C@@H](N)Cc1ccc(O)cc1)C(=O)N1CCC[C@H]1C(=O)N[C@H](C)C(=O)N[C@@H](CCC(N)=O)C(=O)N[C@@H](Cc1ccc(O)cc1)C(=O)N[C@@H](C)C(=O)N[C@@H](Cc1ccccc1)C(=O)N[C@H](CO)C(=O)O [compound 124] (H-YLP[dA]QYAF[dS]-OH; N-terminus assumed) |  | 1,75 DF/F0 |  | 1.83 h |  | 
CC(C)C[C@H](NC(=O)[C@@H](N)Cc1ccc(O)cc1)C(=O)N1CCC[C@H]1C(=O)NCC(=O)N[C@@H](CCC(N)=O)C(=O)N[C@@H](Cc1ccc(O)cc1)C(=O)N[C@@H](C)C(=O)N1CCC[C@@H]1C(=O)N[C@H](Cc1ccccc1)C(=O)O [compound 125] (H-YLPGQYA[dP][dF]-OH; N-terminus assumed) | 0.7 h | 1,69 DF/F0 | 7.84 |  |  | 
CC(C)C[C@H](NC(=O)[C@@H](N)Cc1ccc(O)cc1)C(=O)N1CCC[C@H]1C(=O)N[C@H](Cc1c[nH]c2ccccc12)C(=O)N[C@@H](CCC(N)=O)C(=O)N[C@@H](Cc1ccc(O)cc1)C(=O)N[C@@H](C)C(=O)N[C@@H](Cc1ccccc1)C(=O)N[C@H](Cc1ccccc1)C(=O)O [compound 127] (H-YLP[dW]QYAF[dF]-OH; N-terminus assumed) | 2.07 h | 1,52 DF/F0 | 7.45 |  |  | 
CC(C)C[C@H](NC(=O)[C@@H](N)Cc1ccc(O)cc1)C(=O)N1CCC[C@H]1C(=O)N1CCC[C@@H]1C(=O)N1CCC[C@H]1C(=O)N[C@@H](Cc1ccc(O)cc1)C(=O)N[C@@H](C)C(=O)N[C@@H](Cc1ccccc1)C(=O)N[C@H](Cc1ccccc1)C(=O)O [compound 130] (H-YLP[dP]PYAF[dF]-OH; N-terminus assumed) | 3.58 h | 1,72 DF/F0 | 7.36 |  |  | 

The next lines start with results.

half-life at 50 µg/mL ([1]; human serum, 25% (v/v) in RPMI) | max response [2, 3] | pEC50 [2, 4] | t1/2 [1] | SMILES | half-life at 50 µg/mL ([1]; serum) | pEC50 [2]
1.33 h | 1,73 DF/F0 | 6.61 |  | CC(C)C[C@H](NC(=O)[C@H](N)Cc1ccc(O)cc1)C(=O)N1CCC[C@@H]1C(=O)NCC(=O)N[C@@H](CCC(N)=O)C(=O)N[C@@H](Cc1ccc(O)cc1)C(=O)N[C@@H](C)C(=O)N[C@@H](Cc1ccccc1)C(=O)N[C@@H](CO)C(=O)O [compound 104] (H-[dY]L[dP]GQYAFS-OH; N-terminus assumed) |  | 
1.83 h | 1,53 DF/F0 | 6.16 |  | C[C@H](N)C(=O)N[C@@H](Cc1ccccc1)C(=O)N[C@H](CO)C(=O)N[C@@H](CCC(N)=O)C(=O)N[C@@H](Cc1ccccc1)C(=O)N[C@H](CO)C(=O)N[C@@H](C)C(=O)N[C@@H](Cc1ccccc1)C(=O)N[C@H](CO)C(=O)O [compound 106] (H-AF[dS]QF[dS]AF[dS]-OH; N-terminus assumed) |  | 
 | 1,6 DF/F0 |  | 23.47 h | CC(C)C[C@H](NC(=O)[C@H](N)Cc1ccc(O)cc1)C(=O)N1CCC[C@H]1C(=O)N[C@H](CO)C(=O)N[C@@H](CCC(N)=O)C(=O)N[C@@H](Cc1ccc(O)cc1)C(=O)N[C@@H](C)C(=O)N[C@@H](Cc1ccccc1)C(=O)N[C@H](CO)C(=O)O [compound 121] (H-[dY]LP[dS]QYAF[dS]-OH; N-terminus assumed) |  | 
 | 1,54 DF/F0 |  | 2.65 h | CC(C)C[C@H](NC(=O)[C@@H](N)Cc1ccc(O)cc1)C(=O)N1CCC[C@H]1C(=O)NCC(=O)N[C@@H](CCC(N)=O)C(=O)N[C@@H](Cc1ccc(O)cc1)C(=O)N[C@H](Cc1c[nH]c2ccccc12)C(=O)N[C@@H](Cc1ccccc1)C(=O)N[C@H](Cc1ccccc1)C(=O)O [compound 122] (H-YLPGQY[dW]F[dF]-OH; N-terminus assumed) |  | 
0.783 h | 1,33 DF/F0 | 7.68 |  | CC(C)C[C@H](NC(=O)[C@@H](N)Cc1ccc(O)cc1)C(=O)N1CCC[C@H]1C(=O)NCC(=O)N[C@@H](CCC(N)=O)C(=O)N[C@@H](Cc1ccc(O)cc1)C(=O)N[C@H](Cc1c[nH]c2ccccc12)C(=O)N1CCC[C@H]1C(=O)N[C@H](Cc1ccccc1)C(=O)O [compound 126] (H-YLPGQY[dW]P[dF]-OH; N-terminus assumed) |  | 
8 h | 1,45 DF/F0 | 7.41 |  | CC(C)C[C@H](N)C(=O)N[C@H](Cc1c[nH]c2ccccc12)C(=O)NCC(=O)NCC(=O)N1CCC[C@H]1C(=O)N[C@@H](Cc1ccc(O)cc1)C(=O)N[C@H](Cc1c[nH]c2ccccc12)C(=O)N[C@@H](Cc1ccc(O)cc1)C(=O)N[C@H](CO)C(=O)O [compound 128] (H-L[dW]GGPY[dW]Y[dS]-OH; N-terminus assumed) |  | 
0.533 h | 1,1 DF/F0 | 7.38 |  | CC(C)C[C@@H](NC(=O)[C@H](CCCNC(=N)N)NC(=O)[C@@H](N)Cc1ccc(O)cc1)C(=O)NCC(=O)N[C@@H](CCC(N)=O)C(=O)N[C@@H](Cc1ccc(O)cc1)C(=O)N[C@H](Cc1c[nH]c2ccccc12)C(=O)N[C@H](CC(=O)O)C(=O)N[C@H](Cc1ccccc1)C(=O)O [compound 129] (H-YR[dL]GQY[dW][dD][dF]-OH; N-terminus assumed) |  | 
